Assay results: the NIST ThermoML archive (doi:10.1016/j.jct.2005.07.009)

Legend:
[1] = excess molar enthalpy (molar enthalpy of mixing); xn = mol fraction of the nth substance listed; conditions: 298.15 K, 101 kPa, Liquid
[2] = xn = mol fraction of the nth substance listed; conditions: 298.15 K, 101 kPa, Liquid, Vibrating tube method

BrCCCBr [1,3-dibromopropane] + CCCC(=O)OCC
Conditions	excess molar enthalpy [kcal/mol]	mass density [kg/m3]
[1], x2 = 0.0406	0.00528	–
[1], x2 = 0.0875	0.0082	–
[1], x2 = 0.142	0.00906	–
[1], x2 = 0.1949	0.00832	–
[1], x2 = 0.2497	0.00576	–
[1], x2 = 0.3027	0.00174	–
[1], x2 = 0.3525	-0.00265	–
[1], x2 = 0.4005	-0.00731	–
[1], x2 = 0.4399	-0.0109	–
[1], x2 = 0.4453	-0.0114	–
[1], x2 = 0.4914	-0.0149	–
[1], x2 = 0.5444	-0.0171	–
[1], x2 = 0.6028	-0.0185	–
[1], x2 = 0.6668	-0.019	–
[1], x2 = 0.7369	-0.0185	–
[1], x2 = 0.8067	-0.0161	–
[1], x2 = 0.8771	-0.0119	–
[2], x2 = 0.0436	–	1908.9
[2], x2 = 0.0835	–	1854.01
[2], x2 = 0.1381	–	1781.05
[2], x2 = 0.1859	–	1719.07
[2], x2 = 0.2926	–	1586.65
[2], x2 = 0.4637	–	1389.88
[2], x2 = 0.5238	–	1324.96
[2], x2 = 0.6494	–	1195.57
[2], x2 = 0.7131	–	1133.02
[2], x2 = 0.7811	–	1068.34
[2], x2 = 0.852	–	1003.1
[2], x2 = 0.9215	–	941.15

BrCCCBr [1,3-dibromopropane] + CCCCC(=O)OCC
Conditions	excess molar enthalpy [kcal/mol]	mass density [kg/m3]
[1], x2 = 0.0175	0.00339	–
[1], x2 = 0.0382	0.00617	–
[1], x2 = 0.0611	0.00844	–
[1], x2 = 0.0911	0.00906	–
[1], x2 = 0.1259	0.00923	–
[1], x2 = 0.1645	0.00882	–
[1], x2 = 0.205	0.00784	–
[1], x2 = 0.247	0.00564	–
[1], x2 = 0.2878	0.00201	–
[1], x2 = 0.3293	-0.00241	–
[1], x2 = 0.3706	-0.00626	–
[1], x2 = 0.4062	-0.00927	–
[1], x2 = 0.4471	-0.0122	–
[1], x2 = 0.4985	-0.0154	–
[1], x2 = 0.5544	-0.017	–
[1], x2 = 0.6183	-0.0182	–
[1], x2 = 0.6862	-0.0188	–
[1], x2 = 0.7558	-0.0182	–
[1], x2 = 0.8251	-0.0156	–
[1], x2 = 0.8833	-0.0117	–
[1], x2 = 0.946	-0.00602	–
[2], x2 = 0.0408	–	1905.88
[2], x2 = 0.0868	–	1836.07
[2], x2 = 0.1296	–	1773.38
[2], x2 = 0.177	–	1707.11
[2], x2 = 0.273	–	1579.99
[2], x2 = 0.325	–	1515.4
[2], x2 = 0.3803	–	1449.57
[2], x2 = 0.437	–	1385.12
[2], x2 = 0.5197	–	1296
[2], x2 = 0.6902	–	1128.6
[2], x2 = 0.7601	–	1065.64
[2], x2 = 0.8344	–	1001.96
[2], x2 = 0.9163	–	935.2

BrCCCBr [1,3-dibromopropane] + CCOC(=O)CC
Conditions	excess molar enthalpy [kcal/mol]	mass density [kg/m3]
[1], x2 = 0.0471	0.00559	–
[1], x2 = 0.1006	0.0087	–
[1], x2 = 0.1564	0.00918	–
[1], x2 = 0.2139	0.00786	–
[1], x2 = 0.2707	0.00387	–
[1], x2 = 0.3244	-0.000813	–
[1], x2 = 0.3765	-0.00605	–
[1], x2 = 0.4201	-0.0111	–
[1], x2 = 0.4478	-0.0156	–
[1], x2 = 0.4591	-0.0195	–
[1], x2 = 0.493	-0.0144	–
[1], x2 = 0.4983	-0.0205	–
[1], x2 = 0.5563	-0.0245	–
[1], x2 = 0.6207	-0.026	–
[1], x2 = 0.6908	-0.0251	–
[1], x2 = 0.7671	-0.0219	–
[1], x2 = 0.8476	-0.0164	–
[1], x2 = 0.9262	-0.00906	–
[2], x2 = 0.1075	–	1839.36
[2], x2 = 0.161	–	1775.98
[2], x2 = 0.2159	–	1711.67
[2], x2 = 0.2732	–	1645.81
[2], x2 = 0.3842	–	1520.67
[2], x2 = 0.4468	–	1451.66
[2], x2 = 0.5011	–	1392.66
[2], x2 = 0.5622	–	1327.28
[2], x2 = 0.6827	–	1201.05
[2], x2 = 0.7443	–	1137.95
[2], x2 = 0.8686	–	1013.23

BrCCCBr [1,3-dibromopropane] + CCOC(C)=O
Conditions	excess molar enthalpy [kcal/mol]	mass density [kg/m3]
[1], x2 = 0.0601	0.0131	–
[1], x2 = 0.127	0.0223	–
[1], x2 = 0.195	0.0295	–
[1], x2 = 0.2607	0.0333	–
[1], x2 = 0.3258	0.0342	–
[1], x2 = 0.3855	0.0332	–
[1], x2 = 0.4407	0.0304	–
[1], x2 = 0.4829	0.0271	–
[1], x2 = 0.487	0.0269	–
[1], x2 = 0.5298	0.0219	–
[1], x2 = 0.5741	0.0169	–
[1], x2 = 0.628	0.0109	–
[1], x2 = 0.687	0.00531	–
[1], x2 = 0.7498	0.000765	–
[1], x2 = 0.8153	-0.00174	–
[1], x2 = 0.8813	-0.00241	–
[1], x2 = 0.9434	-0.00136	–
[2], x2 = 0.057	–	1910.48
[2], x2 = 0.1189	–	1845.49
[2], x2 = 0.1785	–	1782.59
[2], x2 = 0.2647	–	1691.31
[2], x2 = 0.3199	–	1632.54
[2], x2 = 0.4187	–	1526.9
[2], x2 = 0.466	–	1476.19
[2], x2 = 0.5091	–	1429.89
[2], x2 = 0.6323	–	1296.79
[2], x2 = 0.6746	–	1250.93
[2], x2 = 0.7715	–	1145.6
[2], x2 = 0.8309	–	1080.67
[2], x2 = 0.8892	–	1016.69
[2], x2 = 0.9615	–	937.08
